This passage reports EC50 results from patent publication US9499550B2 (BRISTOL-MYERS SQUIBB COMPANY, priority 2012, dated 2016).

Some results are limits rather than exact numbers.

Experiment [1] deals with HCV genotype 1a (H77 strain) replicon in HUH-7 cells. As to the kind of experiment: HCV replicon luciferase reporter assay, genotype 1a. To be noted: Hepatitis C virus, Huh-7, 72 h, HCV genotype 1a replicon luciferase, 3 days incubation, read-out: LE_1a (EC50, range). Format: cell-based. The essentials:
(§1)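 Replicon inhibition for both genotypes was measured as Renilla luciferase signal (EnduRen, 7.5 μM final, 2 h) after 3-day, 37° C exposure of replicon-bearing HUH-7 cells in 4% FCS DMEM, 0.5% DMSO. The 1b construct carries S1179I; the 1a H77 construct carries P1496L and S2204I. Twenty-point, 3-fold dilutions were fitted four-parametrically for EC50, and CC50 was taken from multiplexed Cell Titer-Blue.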

For experiment [2], the system named is HCV genotype 1b (Con1) replicon in HUH-7 cells. Nature of the experiment: HCV replicon luciferase reporter assay, genotype 1b. Format: cell-based. Particulars: Hepatitis C virus, Huh-7, 72 h, HCV genotype 1b replicon luciferase, 3 days incubation, read-out: LE_1b (EC50, range). The procedure, abridged:
as §1

Take `COc1ccc2c(O[C@@H]3C[C@H]4C(=O)N[C@]5(C(=O)NS(=O)(=O)C6(C)CC6)C[C@H]5/C=C\CC[C@@H](C)C[C@@H](C)[C@H](NC(=O)OC(C)(C)C(F)(F)F)C(=O)N4C3)nc(-c3ccc(OC(C)C)nc3)cc2c1` [Compound 5225, 1,1,1-trifluoro-2-methylpropan-2-yl((2R,6S,7R,9R,13aS,14aR,16aS,Z)-2-((3-(6-isopropoxypyridin-3-yl)-6-methoxyisoquinolin-1-yl)oxy)-7,9-dimethyl-14a-(((1-methylcyclopropyl)sulfonyl)carbamoyl)-5,16-dioxo-1,2,3,5,6,7,8,9,10,11,13a,14,14a,15,16,16a-hexadecahydrocyclopropa[e]pyrrolo[1,2-a][1,4]diazacyclopentadecin-6-yl)carbamate]: the EC50 in experiment [1] and in experiment [2] was < 5.46 nM throughout.

In the case of `[2H]C([2H])([2H])C(OC(=O)N[C@@H]1C(=O)N2C[C@H](Oc3nc(-c4ccc(OC(C)C)nc4)cc4cc(OC)ccc34)C[C@H]2C(=O)N[C@]2(C(=O)NS(=O)(=O)C3(C)CC3)C[C@H]2/C=C\CC[C@H](C)C[C@H]1C)(C([2H])([2H])[2H])C(F)(F)F` [Compound 5226, 1,1,1,3,3,3-hexadeutero-2-(trifluoromethyl)propan-2-yl((2R,6S,7R,9S,13aS,14aR,16aS,Z)-2-((3-(6-isopropoxypyridin-3-yl)-6-methoxyisoquinolin-1-yl)oxy)-7,9-dimethyl-14a-(((1-methylcyclopropyl)sulfonyl)carbamoyl)-5,16-dioxo-1,2,3,5,6,7,8,9,10,11,13a,14,14a,15,16,16a-hexadecahydrocyclopropa[e]pyrrolo[1,2-a][1,4]diazacyclopentadecin-6-yl)carbamate], the EC50 in experiment [1] and in experiment [2] was 4.82 to 103 nM in each case.

In the case of `[2H]C([2H])([2H])C(OC(=O)N[C@@H]1C(=O)N2C[C@H](Oc3nc(-c4ccc(OC(C)C)nc4)cc4cc(OC)ccc34)C[C@H]2C(=O)N[C@]2(C(=O)NS(=O)(=O)C3(C)CC3)C[C@H]2/C=C\CC[C@@H](C)C[C@H]1C)(C([2H])([2H])[2H])C(F)(F)F` [Compound 5227, 1,1,1,3,3,3-hexadeutero-2-(trifluoromethyl)propan-2-yl((2R,6S,7R,9R,13aS,14aR,16aS,Z)-2-((3-(6-isopropoxypyridin-3-yl)-6-methoxyisoquinolin-1-yl)oxy)-7,9-dimethyl-14a-(((1-methylcyclopropyl)sulfonyl)carbamoyl)-5,16-dioxo-1,2,3,5,6,7,8,9,10,11,13a,14,14a,15,16,16a-hexadecahydrocyclopropa[e]pyrrolo[1,2-a][1,4]diazacyclopentadecin-6-yl)carbamate], the EC50 in experiment [1] and in experiment [2] was < 5.46 nM each time.

In the case of `COc1ccc2c(O[C@@H]3C[C@H]4C(=O)N[C@]5(C(=O)NS(=O)(=O)C6(C)CC6)C[C@H]5/C=C\CC[C@H](C)C[C@@H](C)[C@H](NC(=O)OC5C[C@@H]6C[C@@H]6C5)C(=O)N4C3)nc(-c3ccc(OC(C)C)nc3)cc2c1` (stereo partly drawn) [Compound 5228, (1R,3r,5S)-bicyclo[3.1.0]hexan-3-yl((2R,6S,7R,9S,13aS,14aR,16aS,Z)-2-((3-(6-isopropoxypyridin-3-yl)-6-methoxyisoquinolin-1-yl)oxy)-7,9-dimethyl-14a-(((1-methylcyclopropyl)sulfonyl)carbamoyl)-5,16-dioxo-1,2,3,5,6,7,8,9,10,11,13a,14,14a,15,16,16a-hexadecahydrocyclopropa[e]pyrrolo[1,2-a][1,4]diazacyclopentadecin-6-yl)carbamate], the EC50 in experiment [1] was 4.82 to 103 nM; in experiment [2] it was < 5.46 nM.

As to `COc1ccc2c(O[C@@H]3C[C@H]4C(=O)N[C@]5(C(=O)NS(=O)(=O)C6(C)CC6)C[C@H]5/C=C\CC[C@@H](C)C[C@@H](C)[C@H](NC(=O)OC5C[C@@H]6C[C@@H]6C5)C(=O)N4C3)nc(-c3ccc(OC(C)C)nc3)cc2c1` (stereo partly drawn) [Compound 5229, (1R,3r,5S)-bicyclo[3.1.0]hexan-3-yl((2R,6S,7R,9R,13aS,14aR,16aS,Z)-2-((3-(6-isopropoxypyridin-3-yl)-6-methoxyisoquinolin-1-yl)oxy)-7,9-dimethyl-14a-(((1-methylcyclopropyl)sulfonyl)carbamoyl)-5,16-dioxo-1,2,3,5,6,7,8,9,10,11,13a,14,14a,15,16,16a-hexadecahydrocyclopropa[e]pyrrolo[1,2-a][1,4]diazacyclopentadecin-6-yl)carbamate], the EC50 in experiment [1] and in experiment [2] was < 5.46 nM in each case.

For the compound `COc1ccc2c(O[C@@H]3C[C@H]4C(=O)N[C@]5(C(=O)NS(=O)(=O)C6(C)CC6)C[C@H]5/C=C\CC[C@H](C)C[C@@H](C)[C@H](NC(=O)NC(C)(C)C)C(=O)N4C3)nc(-c3ccc(OC(C)C)nc3)cc2c1` [Compound 5230, (2R,6S,7R,9S,13aS,14aR,16aS,Z)-6-(3-(tert-butyl)ureido)-2-((3-(6-isopropoxypyridin-3-yl)-6-methoxyisoquinolin-1-yl)oxy)-7,9-dimethyl-N-((1-methylcyclopropyl)sulfonyl)-5,16-dioxo-1,2,3,5,6,7,8,9,10,11,13a,14,14a,15,16,16a-hexadecahydrocyclopropa[e]pyrrolo[1,2-a][1,4]diazacyclopentadecine-14a-carboxamide], the EC50 is 4.82 to 103 nM in experiment [1] and < 5.46 nM in experiment [2].

Consider `COc1ccc2c(O[C@@H]3C[C@H]4C(=O)N[C@]5(C(=O)NS(=O)(=O)C6(C)CC6)C[C@H]5/C=C\CC[C@@H](C)C[C@@H](C)[C@H](NC(=O)NC(C)(C)C)C(=O)N4C3)nc(-c3ccc(OC(C)C)nc3)cc2c1` [Compound 5231, (2R,6S,7R,9R,13aS,14aR,16aS,Z)-6-(3-(tert-butyl)ureido)-2-((3-(6-isopropoxypyridin-3-yl)-6-methoxyisoquinolin-1-yl)oxy)-7,9-dimethyl-N-((1-methylcyclopropyl)sulfonyl)-5,16-dioxo-1,2,3,5,6,7,8,9,10,11,13a,14,14a,15,16,16a-hexadecahydrocyclopropa[e]pyrrolo[1,2-a][1,4]diazacyclopentadecine-14a-carboxamide], for which the EC50 in experiment [1] and in experiment [2] was < 5.46 nM throughout.

For the compound `COc1ccc2c(O[C@@H]3C[C@H]4C(=O)N[C@]5(C(=O)NS(=O)(=O)C6(C)CC6)C[C@H]5/C=C\CC[C@@H](C)C[C@@H](C)[C@H](NC(=O)OC(C)(C)C)C(=O)N4C3)nc(-c3ccc4c(c3)OCCO4)cc2c1` [Compound 5233, tert-butyl ((2R,6S,7R,9R,13aS,14aR,16aS,Z)-2-((3-(2,3-dihydrobenzo[b][1,4]dioxin-6-yl)-6-methoxyisoquinolin-1-yl)oxy)-7,9-dimethyl-14a-(((1-methylcyclopropyl)sulfonyl)carbamoyl)-5,16-dioxo-1,2,3,5,6,7,8,9,10,11,13a,14,14a,15,16,16a-hexadecahydrocyclopropa[e]pyrrolo[1,2-a][1,4]diazacyclopentadecin-6-yl)carbamate], the EC50 in experiment [1] and in experiment [2] was < 5.46 nM each time.

With `COc1ccc2c(O[C@@H]3C[C@H]4C(=O)N[C@]5(C(=O)NS(=O)(=O)C6(C)CC6)C[C@H]5/C=C\CC[C@@H](C)C[C@@H](C)[C@H](NC(=O)OC(C)(C)C(F)(F)F)C(=O)N4C3)nc(-c3ccc4c(c3)OCCO4)cc2c1` [Compound 5235, 1,1,1-trifluoro-2-methylpropan-2-yl((2R,6S,7R,9R,13aS,14aR,16aS,Z)-2-((3-(2,3-dihydrobenzo[b][1,4]dioxin-6-yl)-6-methoxyisoquinolin-1-yl)oxy)-7,9-dimethyl-14a-(((1-methylcyclopropyl)sulfonyl)carbamoyl)-5,16-dioxo-1,2,3,5,6,7,8,9,10,11,13a,14,14a,15,16,16a-hexadecahydrocyclopropa[e]pyrrolo[1,2-a][1,4]diazacyclopentadecin-6-yl)carbamate], the EC50 in experiment [1] and in experiment [2] was < 5.46 nM each time.

As for `COc1ccc2c(O[C@@H]3C[C@H]4C(=O)N[C@]5(C(=O)NS(=O)(=O)C6(C)CC6)C[C@H]5/C=C\CC[C@H](C)C[C@@H](C)[C@H](NC(=O)OC(C)(C)C(C)(F)F)C(=O)N4C3)nc(-c3ccc4c(c3)OCCO4)cc2c1` [Compound 5236, 3,3-difluoro-2-methylbutan-2-yl((2R,6S,7R,9S,13aS,14aR,16aS,Z)-2-((3-(2,3-dihydrobenzo[b][1,4]dioxin-6-yl)-6-methoxyisoquinolin-1-yl)oxy)-7,9-dimethyl-14a-(((1-methylcyclopropyl)sulfonyl)carbamoyl)-5,16-dioxo-1,2,3,5,6,7,8,9,10,11,13a,14,14a,15,16,16a-hexadecahydrocyclopropa[e]pyrrolo[1,2-a][1,4]diazacyclopentadecin-6-yl)carbamate], the EC50 in experiment [1] and in experiment [2] was < 5.46 nM each time.

As for `COc1ccc2c(O[C@@H]3C[C@H]4C(=O)N[C@]5(C(=O)NS(=O)(=O)C6(C)CC6)C[C@H]5/C=C\CC[C@@H](C)C[C@@H](C)[C@H](NC(=O)OC(C)(C)C(C)(F)F)C(=O)N4C3)nc(-c3ccc4c(c3)OCCO4)cc2c1` [Compound 5237, 3,3-difluoro-2-methylbutan-2-yl((2R,6S,7R,9R,13aS,14aR,16aS,Z)-2-((3-(2,3-dihydrobenzo[b][1,4]dioxin-6-yl)-6-methoxyisoquinolin-1-yl)oxy)-7,9-dimethyl-14a-(((1-methylcyclopropyl)sulfonyl)carbamoyl)-5,16-dioxo-1,2,3,5,6,7,8,9,10,11,13a,14,14a,15,16,16a-hexadecahydrocyclopropa[e]pyrrolo[1,2-a][1,4]diazacyclopentadecin-6-yl)carbamate], the EC50 in experiment [1] and in experiment [2] was < 5.46 nM in each case.
